System: Anaerococcus octavius (Peptostreptococcus octavius)
Test: Filter paper/surface method: inhibition zone and growth under the filter disc
Format: cell-based
Procedure: Weiterhin wurden die Wirkstoffe mit Hilfe des Filterpapier/Oberflächenverfahrens vermessen. Der Testkeim Anaerococcus octavius (Peptostreptococcus octavius) war erhältlich als DSM 10024; er wurde 5 Tage bei 37 °C vorinkubiert. 0,3 ml Wirkstofflösung bzw. 0,3 g wirkstoffhaltiges Produkt wurden auf eine Filterpapierscheibe mit einem Durchmesser von 4,5 cm aufgebracht, anschließend wurde die Filterpapierscheibe auf den bakterienhaltigen Agar gelegt. Nach der Inkubationszeit wurde die Größe des gebildeten Hemmhofes vermessen. Bei den Lösungen, für die kein Hemmhof detektiert werden konnte, weil der Wirkstoff nicht in den Agar penetriert war, wurde zusätzlich das Wachstum unter den Filterpapierscheiben beurteilt.

[1] = 22 Gew.-% Aktivsubstanz, medium Wasser, pH after adjustment ca. 4
[2] = 8 Gew.-% Aktivsubstanz, medium Wasser/ Ethanol (30 Vol.-% / 70 Vol.-%), pH after adjustment 4,2
[3] = 20 Gew.-% Aktivsubstanz, medium Wasser, pH after adjustment 4,2
[4] = 0,5 Gew.-% Aktivsubstanz, medium Wasser, pH tel quel 6,5, after addition of Citronensäure 5,1

Compound: O=C(O)CCCCCCC/C=C\CCCCCCCC(=O)O [Arlatone DCA, 9(Z)-Octadecendicarbonsäure]
- Wachstum unter der Filterscheibe (2 Gew.-% Aktivsubstanz, medium Ethanol): kein Wachstum
- zone of inhibition at 2 % (Anaerococcus octavius, 2 Gew.-% Aktivsubstanz, medium Ethanol, read-out: Durchmesser des Hemmhofes): 4 mm

Compound: CCCCC(CC)COCC(O)CO (stereo not drawn) [Sensiva SC 50, α-Mono-(2-ethylhexyl)glycerinether]
- Wachstum unter der Filterscheibe (0,5 Gew.-% Aktivsubstanz, medium Wasser/ Ethanol (50 Vol.-% / 50 Vol.-%), pH tel quel 6,65, after addition of Citronensäure 5,1): deutlich gehemmt
- zone of inhibition at 0.5 % (Anaerococcus octavius, read-out: Durchmesser des Hemmhofes): 0 mm

Compound: Aluminium Zirconium Tetrachlorohydrex Gly [REACH AZP 908 (Powder)]
- Durchmesser des Hemmhofes [1]: 0 mm
- Wachstum unter der Filterscheibe [1]: kein Wachstum

Compound: Aluminium chlorohydrate
- Durchmesser des Hemmhofes [2]: 0 mm
- Wachstum unter der Filterscheibe [2]: deutlich gehemmt
- Durchmesser des Hemmhofes [3]: 0 mm
- Wachstum unter der Filterscheibe [3]: leicht gehemmt

Compound: Zinkgluconat
- Durchmesser des Hemmhofes [4]: 0 mm
- Wachstum unter der Filterscheibe [4]: deutlich gehemmt
